The source of these data is patent US11802120B2, “Fused cyclic urea derivatives as CRHR2 antagonist” (RaQualia Pharma Inc., priority 2018, dated 2023).

What all share (assay type): cell-based
One experiment concerns the target T1, CRHR2 (Homo sapiens, UniProt Q13324).
T1 sequence (Q13324 1-411): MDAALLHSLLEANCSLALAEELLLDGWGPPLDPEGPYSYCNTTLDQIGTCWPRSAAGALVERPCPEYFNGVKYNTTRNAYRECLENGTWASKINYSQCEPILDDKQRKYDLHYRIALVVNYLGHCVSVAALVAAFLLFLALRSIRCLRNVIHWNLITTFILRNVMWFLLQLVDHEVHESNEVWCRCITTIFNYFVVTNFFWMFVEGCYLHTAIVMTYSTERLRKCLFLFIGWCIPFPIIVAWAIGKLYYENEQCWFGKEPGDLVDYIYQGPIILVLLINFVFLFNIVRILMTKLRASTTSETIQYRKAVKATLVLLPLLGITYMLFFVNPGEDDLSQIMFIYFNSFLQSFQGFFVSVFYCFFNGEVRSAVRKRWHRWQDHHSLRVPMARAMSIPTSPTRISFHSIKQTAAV
Kind of experiment: CRHR2 antagonistic activity (inhibitory activity against CRHR2).

For another experiment, the target named is T2, human CRHR2-alpha (Homo sapiens, UniProt Q13324).
T2 sequence (Q13324 1-411): T1 sequence (Q13324 1-411)
Description: cAMP functional assay for human CRHR2 (LANCE Ultra cAMP, TR-FRET). As to conditions: CHO-K1 cells expressing human CRHR2-alpha, agonist human urocortin2 at EC80, cAMP; read-out: IC50 against CRHR2. Summed up: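 Inhibition of agonist-driven cAMP was assessed in recombinant CHO-K1 cells at 25° C, using 30 min compound pretreatment and 30 min stimulation with EC80 human urocortin2 (CRHR2) or CRF (CRHR1). IC50 came from dose-response fitting.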
Background: In TR-FRET formats the signal depends on donor and acceptor labels being close together.

In the next experiment the target is T3, human CRHR1-beta (Homo sapiens, UniProt P34998).
T3 sequence (P34998 24-444 isoform P34998-1 limits assumed): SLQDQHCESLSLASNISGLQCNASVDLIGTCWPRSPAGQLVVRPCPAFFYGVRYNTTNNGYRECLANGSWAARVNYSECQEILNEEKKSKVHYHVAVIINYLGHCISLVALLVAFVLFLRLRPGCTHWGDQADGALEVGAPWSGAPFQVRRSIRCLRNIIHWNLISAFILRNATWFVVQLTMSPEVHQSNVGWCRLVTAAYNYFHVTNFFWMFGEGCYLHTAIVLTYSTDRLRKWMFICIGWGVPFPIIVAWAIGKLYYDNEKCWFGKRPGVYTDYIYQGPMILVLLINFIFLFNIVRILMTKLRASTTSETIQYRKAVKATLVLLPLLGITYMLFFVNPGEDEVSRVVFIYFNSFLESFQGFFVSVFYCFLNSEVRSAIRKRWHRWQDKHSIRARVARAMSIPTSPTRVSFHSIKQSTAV
Kind of experiment: cAMP functional assay for human CRHR1 (LANCE Ultra cAMP, TR-FRET). As to conditions: CHO-K1 cells expressing human CRHR1-beta, agonist CRF at EC80, cAMP; read-out: IC50 against CRHR1. The procedure: cAMP functional assay for human CRHR1 and CRHR2
The ability of the compounds of this invention to inhibit either CRHR2 or CRHR1 is assessed by 3′,5′-cyclic adenosine monophosphate (cAMP) production in cells using the LANCE Ultra cAMP assay kit (ParkinElmer), which are designed based on the homogeneous time-resolved fluorescence resonance energy transfer (TR-FRET) immunoassay.
CHO-K1 (Chinese hamster ovary) cells stably expressing either human CRHR2-alpha (DiscoveRX, Cat. 95-0048C2) or human CRHR1-beta (DiscoveRX, Cat. 95-0047C2) are grown in HAM's F12 media supplemented with 10% fetal bovine serum (FBS), 100 units/mL penicillin, 100 microg/mL hygromycin and 0.5 microg/mL geneticin at 37° C. in 5% CO2 humidified incubator to 80% confluence. After 7 hours starvation treatment in culture media containing 0.1% FBS, the cells are washed with Hanks balanced salt solution (HBSS) and cryopreserved.
For cAMP assay, frozen cells are thawed and washed with HBSS, followed by resuspended in assay buffer (HBSS containing 0.1% bovine serum albumin, 0.5 mM isobutylmethylxanthine and 5 mM Hepes, pH 7.4) at the appropriate concentration for the assay. The cell suspensions are plated on 384-well microplates (Greiner Bio-One) at a density of 4,000 cells per well. After preincubating the cells with various concentrations of the compounds for 30 min at 25° C., an assay buffer containing EC80 concentration of each agonist is added and the cells are incubated for 30 min at 25° C. Human urocortin2 (Peptide Institute) and CRF (Peptide Institute) are used as agonists for CRHR2 and CRHR1, respectively. For the termination of assay, europium-labeled cAMP tracer and ULight (registered trademark) dye labeled cAMP antibodies, both prepared with Lance-Ultra cAMP detection reagent (Perkin Elmer) are added in the plate and incubate for 60 min at 25° C. After incubation, TR-FRET signal is detected by EnVision plate reader (PerkinElmer). The IC50 values for compounds are calculated from dose-response curves by fitting the percent inhibition using XLfit (ID Business Solutions).

Bounds are passed on as bounds.

As a reminder, the IC50 is the concentration at which inhibition is half-maximal. For the compound `Cc1ncc(Cl)cc1C(=O)N[C@H]1CC[C@H](Cn2c(=O)n(-c3ccccc3)c3ccccc32)CC1` [Example 1, 5-chloro-2-methyl-N-((1r,4r)-4-((2-oxo-3-phenyl-2,3-dihydro-1H-benzo[d]imidazol-1-yl)methyl)cyclohexyl)nicotinamide], the IC50 at CRHR2 was 0.39 µM.

With `Cc1ncc(Cl)cc1C(=O)N[C@H]1CC[C@H](Cn2c(=O)n(Cc3ccccc3)c3ccccc32)CC1` [Example 2, N-((1r,4r)-4-((3-benzyl-2-oxo-2,3-dihydro-1H-benzo[d]imidazol-1-yl)methyl)cyclohexyl)-5-chloro-2-methylnicotinamide], the values for the IC50 at CRHR2 and at human CRHR2-alpha were 0.18 µM and below 0.3 µM, respectively. As for `CCn1c(=O)n(C[C@H]2CC[C@H](NC(=O)c3cc(Cl)cnc3C)CC2)c2ccccc21` [Example 2.46, reference compound], the midpoint of inhibition at CRHR2, the IC50, lay at 3 µM. On the same count and under the same terms, then `Cc1ncc(Cl)cc1C(=O)N[C@H]1CC[C@H](Cn2c(=O)n(C)c3ccccc32)CC1` [Example 2.50, reference compound], with 13 µM.

Consider `Cc1ccc(-n2c(=O)n(C[C@H]3CC[C@H](NC(=O)c4cc(Cl)cnc4C)CC3)c3ccccc32)c(C)n1` [Example 32, 5-chloro-N-((1r,4r)-4-((3-(2,6-dimethylpyridin-3-yl)-2-oxo-2,3-dihydro-1H-benzo[d]imidazol-1-yl)methyl)cyclohexyl)-2-methylnicotinamide], for which the results for the IC50 at human CRHR1-beta and at human CRHR2-alpha were below 1 µM and below 0.3 µM, respectively. As for `COc1ccccc1-n1c(=O)n(C[C@H]2CC[C@H](NC(=O)c3cc(Cl)cnc3C)CC2)c2ccccc21` [Example 34, 5-chloro-N-((1r,4r)-4-((3-(2-methoxyphenyl)-2-oxo-2,3-dihydro-1H-benzo[d]imidazol-1-yl)methyl)cyclohexyl)-2-methylnicotinamide], the values for the IC50 at human CRHR1-beta and on human CRHR2-alpha were below 1 µM and below 0.3 µM, respectively. For `COc1cc(-n2c(=O)n(C[C@H]3CC[C@H](NC(=O)c4cc(Cl)cnc4C)CC3)c3ccccc32)ccn1` [Example 45, 5-chloro-N-((1r,4r)-4-((3-(2-methoxypyridin-4-yl)-2-oxo-2,3-dihydro-1H-benzo[d]imidazol-1-yl)methyl)cyclohexyl)-2-methylnicotinamide], the IC50 was below 1 µM on human CRHR1-beta and below 0.3 µM on human CRHR2-alpha.

`Cc1ncc(Cl)cc1C(=O)N[C@H]1CC[C@H](Cn2c(=O)n(-c3ccc(OCCO)nc3)c3ccccc32)CC1` [Example 50, 5-chloro-N-((1r,4r)-4-((3-(6-(2-hydroxyethoxy)pyridin-3-yl)-2-oxo-2,3-dihydro-1H-benzo[d]imidazol-1-yl)methyl)cyclohexyl)-2-methylnicotinamide]: the values for the IC50 on human CRHR1-beta and at human CRHR2-alpha were below 1 µM and below 0.3 µM, respectively. With `Cc1ncc(Cl)cc1C(=O)N[C@H]1CC[C@H](Cn2c(=O)n(-c3ccc(C(N)=O)nc3)c3ccccc32)CC1` [Example 62, 5-(3-(((1r,4r)-4-(5-chloro-2-methylnicotinamido)cyclohexyl)methyl)-2-oxo-2,3-dihydro-1H-benzo[d]imidazol-1-yl)picolinamide], the results for the 50% inhibitory concentration (IC50) on human CRHR1-beta and on human CRHR2-alpha were below 1 µM and below 0.3 µM, respectively. For `CNC(=O)c1ccc(-n2c(=O)n(C[C@H]3CC[C@H](NC(=O)c4cc(Cl)cnc4C)CC3)c3ccccc32)cn1` [Example 63, 5-(3-(((1r,4r)-4-(5-chloro-2-methylnicotinamido)cyclohexyl)methyl)-2-oxo-2,3-dihydro-1H-benzo[d]imidazol-1-yl)-N-methylpicolinamide], in that order: below 1 µM and below 0.3 µM. For `Cc1ncc(Cl)cc1C(=O)N[C@H]1CC[C@H](Cn2c(=O)n(-c3ccc(N(C)CCO)nc3)c3ccccc32)CC1` [Example 64, 5-chloro-N-((1r,4r)-4-((3-(6-((2-hydroxyethyl)(methyl)amino)pyridin-3-yl)-2-oxo-2,3-dihydro-1H-benzo[d]imidazol-1-yl)methyl)cyclohexyl)-2-methylnicotinamide], in that order: below 1 µM and below 0.3 µM. Turning to `Cc1ncc(Cl)cc1C(=O)N[C@H]1CC[C@H](Cn2c(=O)n(-c3ccc(N(C)C)nn3)c3ccccc32)CC1` [Example 67, 5-chloro-N-((1r,4r)-4-((3-(6-(dimethylamino)pyridazin-3-yl)-2-oxo-2,3-dihydro-1H-benzo[d]imidazol-1-yl)methyl)cyclohexyl)-2-methylnicotinamide], the 50% inhibitory concentration (IC50) at human CRHR1-beta is below 1 µM; on human CRHR2-alpha, below 0.3 µM. On to `CNc1ccc(-n2c(=O)n(C[C@H]3CC[C@H](NC(=O)c4cc(Cl)cnc4C)CC3)c3ccccc32)cn1` [Example 91, 5-chloro-2-methyl-N-((1r,4r)-4-((3-(6-(methylamino)pyridin-3-yl)-2-oxo-2,3-dihydro-1H-benzo[d]imidazol-1-yl)methyl)cyclohexyl)nicotinamide], for which the concentration for half-maximal inhibition (IC50) on human CRHR1-beta was below 1 µM; at human CRHR2-alpha it was below 0.3 µM.

Take `CCNc1ccc(-n2c(=O)n(C[C@H]3CC[C@H](NC(=O)c4cc(Cl)cnc4C)CC3)c3ccccc32)cn1` [Example 92, 5-chloro-N-((1r,4r)-4-((3-(6-(ethylamino)pyridin-3-yl)-2-oxo-2,3-dihydro-1H-benzo [d]imidazol-1-yl)methyl)cyclohexyl)-2-methylnico-tinamide]: the half-inhibitory concentration (IC50) is below 1 µM at human CRHR1-beta and below 0.3 µM on human CRHR2-alpha. In the case of `Cc1ncc(Cl)cc1C(=O)N[C@H]1CC[C@H](Cn2c(=O)n(-c3ccc(N(C)CCCO)nc3)c3ccccc32)CC1` [Example 94, 5-chloro-N-((1r,4r)-4-((3-(6-((3-hydroxypropyl)(methyl)amino)pyridin-3-yl)-2-oxo-2,3-dihydro-1H-benzo[d]imidazol-1-yl)methyl)cyclo-hexyl)-2-methylnicotinamide], the IC50 on human CRHR1-beta is below 1 µM; at human CRHR2-alpha, below 0.3 µM.

In the case of `Cc1ncc(Cl)cc1C(=O)N[C@H]1CC[C@H](Cn2c(=O)n(-c3cnc4[nH]ncc4c3)c3ccccc32)CC1` [Example 128, 5-chloro-2-methyl-N-((1r,4r)-4-((2-oxo-3-(1H-pyrazolo[3,4-b]pyridin-5-yl)-2,3-dihydro-1H-benzo[d]imidazol-1-yl)methyl)cyclohexyl)nicotinamide], the IC50 was 0.28 µM against CRHR2 and below 0.3 µM on human CRHR2-alpha. For `Cc1ncc(Cl)cc1C(=O)N[C@H]1CC[C@H](Cn2c(=O)n(-c3cnc4c(ccn4C)c3)c3ccccc32)CC1` [Example 148, 5-chloro-2-methyl-N-((1r,4r)-4-((3-(1-methyl-1H-pyrrolo [2,3-b]pyridin-5-yl)-2-oxo-2,3-dihydro-1H-benzo[d]imidazol-1-yl)methyl)cyclo-hexyl)nicotinamide], in that order: 0.06 µM and below 0.3 µM. For `Cc1ncc(Cl)cc1C(=O)N[C@H]1CC[C@H](Cn2c(=O)n(-c3cccnc3)c3ccccc32)CC1` [Example 156, 5-chloro-2-methyl-N-((1r,4r)-4-((2-oxo-3-(pyridin-3-yl)-2,3-dihydro-1H-benzo[d]imidazol-1-yl)methyl)cyclo-hexyl)nicotinamide], in that order: 0.28 µM and below 0.3 µM.

At CRHR2, `Cc1ncc(Cl)cc1C(=O)N[C@H]1CC[C@H](Cn2c(=O)n(C3CCCCC3)c3ccccc32)CC1` [reference compound (A), reference compound] showed a 50% inhibitory concentration (IC50) of 3.1 µM.
